Where “and” joins values, the source holds several entries; their conditions need not be identical. Equal entries are not always repeated.
Biological target: Replicase polyprotein 1ab (Severe acute respiratory syndrome coronavirus 2, UniProt P0DTD1)
Assay: Functional biochemical assay to identify treatments for viral infectious disease that targets SARS-COV-2 nsp3 macrodomain, whereby the mechanism of action displaces an ADP-Ribose modified peptide from the binding site. Utilizing a time-resolved fluorescence method to measure binding by reading the emitted fluorescence intensity in two wavelengths.

Row | Compound | IC50
1 | CC(C)[C@H](Nc1ncnc2[nH]c(-c3cnn(C)c3)cc12)c1ccc2c(c1)S(=O)(=O)CCC2 | 9.14 µM
2 | CCNC(=O)c1cc2c(N[C@H](c3ccc4c(n3)S(=O)(=O)CCC4)C(C)C)ncnc2[nH]1 | 0.119 µM
3 | NC(=O)C[C@@H](NC(=O)c1ncnc2[nH]ccc12)C1CCCCC1 | > 99.5 µM
4 | Cc1[nH]c2ncnc(NCc3ccco3)c2c1C | > 99.5 µM
5 | CCNC(=O)c1cc2c(N[C@@H](C(=O)NC3CCOCC3)C(C)C)ncnc2[nH]1 | > 99.5 µM
6 | CCNC(=O)c1cc2c(N[C@@H](CCc3cccc(NS(C)(=O)=O)c3)C(C)C)ncnc2[nH]1 | > 99.5 µM
7 | CC(C)[C@@H](Nc1ncnc2[nH]c(-c3cccc4c3CN(C)C4=O)cc12)c1ccc2c(c1)OCCO2 | 2.15 µM and 2.54 µM
8 | O=C(Nc1ccc(C(=O)N[C@@H]2c3ccccc3C[C@@H]2C(=O)O)cc1)c1ccc(N2CCC(O)CC2)cc1 | > 99.5 µM
9 | Cc1[nH]c2ncnc(NC(=O)CCc3ccccc3)c2c1C | > 99.5 µM
10 | CC(C)[C@@H](Nc1ncnc2[nH]c(-c3cncc(S(C)(=O)=O)c3)cc12)c1ccc2c(c1)S(=O)(=O)CCC2 | 0.039 µM and 0.079 µM and 0.057 µM and 0.143 µM
11 | COc1ccc([C@@H](NC(=O)c2ncnc3[nH]ccc23)C(C)(C)C#N)cc1 | > 99.5 µM
12 | Cc1cc2c(C(=O)N[C@@H](CC(=O)O)c3ccc(Br)cc3)cccc2[nH]1 | > 99.5 µM
13 | CC(C)[C@H](Nc1ncncc1-n1ccnn1)c1ccc2c(c1)S(=O)(=O)CCC2 | > 99.5 µM
14 | CC(C)[C@@H](Nc1ncnc2[nH]c(-c3ccc(S(=O)(=O)NCCO)cc3)cc12)c1ccc2c(c1)S(=O)(=O)CCC2 | 0.1 µM and 0.09 µM and 0.156 µM
15 | O=C(O)C[C@@H](NC(=O)c1c[nH]c2ncccc12)c1ccc(Br)cc1 | 27.4 µM and 29 µM
16 | CC(C)[C@@H](Nc1ncnc2[nH]c(C(=O)Nc3cnoc3)cc12)c1ccc2c(c1)OCCO2 | 1.97 µM and 5.69 µM
17 | CNC(=O)c1ccc([C@@H](CC(=O)O)NC(=O)c2ncnc3[nH]ccc23)cc1 | 9.07 µM and 13.4 µM
18 | C[C@@H](CO)Nc1ncnc2[nH]c(C(=O)OC(C)(C)C)cc12 | > 124 µM
19 | Cc1[nH]c2ncnc(NC(=O)[C@@H]3CCc4c(Cl)cccc43)c2c1C | > 99.5 µM
20 | Cc1nn(C)nc1-c1cc2c(N[C@@H](c3ccc4c(c3)OCCO4)C(C)C)ncnc2[nH]1 | 27.6 µM and 34.2 µM
21 | Cc1nccc(C(=O)N2CCC(c3ccn4ncc(C(=O)N5CCCCC5)c4c3)CC2)n1 | > 99.5 µM
22 | CC(C)[C@@H](Nc1ncnc2[nH]c(-c3cc[nH]c3)cc12)c1ccc2c(c1)OCCO2 | 5.34 µM and 4.55 µM
23 | Cn1cc([C@@H](NC(=O)c2c[nH]c3c(NC(=O)NC4CC4)cccc23)C2CCC2)cn1 | > 99.5 µM
24 | CC(C)[C@@H](Nc1ncnc2[nH]c(C(=O)N[C@@H]3CCN(C)C3)cc12)c1ccc2c(c1)OCCO2 | 0.414 µM and 0.502 µM

Row | Compound | IC50
25 | Cc1[nH]c2ncnc(NC(=O)[C@@H]3Cc4ccccc4CO3)c2c1C | > 99.5 µM
26 | CC(C)[C@H](Oc1cc(N)ncn1)c1ccc2c(c1)S(=O)(=O)CCC2 | 59.8 µM
27 | Cc1nc2c(C(=O)N[C@@H](CC(=O)O)c3ccc(Br)cc3)ccnc2[nH]1 | 20.6 µM and 20.2 µM
28 | CC(=O)N1CC(NC(=O)c2cc3c(N[C@@H](c4ccc5c(c4)OCCO5)C(C)C)ncnc3[nH]2)C1 | 0.793 µM and 2 µM
29 | CCNC(=O)c1cc2c(N[C@@H](c3cc4c(cc3Cl)OCO4)C(C)C)ncnc2[nH]1 | 6.22 µM and 4.92 µM
30 | Cc1nnn(C)c1-c1cc2c(N[C@@H](c3ccc4c(c3)OCCO4)C(C)C)ncnc2[nH]1 | 10.1 µM and 8.67 µM
31 | CC(C)[C@@H](Nc1ncnc2[nH]c(-c3ccc4[nH]ncc4c3)cc12)c1ccc2c(c1)OCCO2 | 20.5 µM and 19.7 µM
32 | CO[C@@H]1C[C@@H](C(=O)O)N(c2ncnc3[nH]ccc23)C1 | > 99.5 µM
33 | Cc1cnn(C)c1NC(=O)c1cc2c(N[C@@H](c3ccc4c(c3)OCCO4)C(C)C)ncnc2[nH]1 | 27.3 µM and > 99.5 µM
34 | Cc1cccc(Cl)c1-n1sc(=O)n(CC2CC2)c1=O | 23 µM
35 | O=C(N[C@@H](C(=O)O)c1ccc2c(c1)CCO2)c1ncnc2[nH]ccc12 | 78.4 µM and 74.6 µM
36 | CC(C)[C@H](Nc1ncnc2[nH]c(-c3cnn(CC(N)=O)c3)cc12)c1ccc2c(c1)S(=O)(=O)CCC2 | 21 nM and 16 nM and 31 nM (2×) and 15 nM and 23 nM (2×) and 25 nM
37 | CC(C)[C@@H](Nc1n[nH]c2ncccc12)c1ccc2c(c1)S(=O)(=O)CCC2 | 43.5 µM
38 | Cc1nc2ccc(C(=O)N(C)CC[C@@H](Nc3ncnc4[nH]ccc34)C(C)C)cc2s1 | > 99.5 µM
39 | CC(C)[C@@H](Nc1ncnc2[nH]c(-c3ccc4c(c3)C(C)(C)C(=O)N4)cc12)c1ccc2c(c1)S(=O)(=O)CCC2 | 0.334 µM
40 | O=C(OCc1ccc(Cl)nc1)c1ncnc2[nH]ccc12 | > 99.5 µM
41 | c1nc(-c2ccc3c(c2)OCO3)c2cc[nH]c2n1 | > 99.5 µM
42 | Cc1[nH]c2ncnc(NC(=O)c3cnc(Cl)cn3)c2c1C | > 99.5 µM
43 | O=C(O)C[C@@H](NC(=O)c1cnc2[nH]ccc2c1)c1ccc(Br)cc1 | > 99.5 µM
44 | Cc1nnc(Nc2ccc([C@@H](CC(=O)O)NC(=O)c3ncnc4[nH]ccc34)cc2)o1 | 12.2 µM and 10.1 µM
45 | CCNC(=O)c1cc2c(N[C@H](c3ccc4c(c3)OCCO4)C(C)C)ncnc2[nH]1 | 46.8 µM
46 | CC(C)[C@H](Nc1ncnc2[nH]cc(C(=O)NC3CC3)c12)c1ccc2c(c1)S(=O)(=O)CCC2 | 3.9 µM and 6.46 µM and 4.28 µM
47 | CCNC(=O)c1cc2c(N[C@@H](c3cnc(NC(C)=O)s3)C(C)C)ncnc2[nH]1 | 4.35 µM and 5.38 µM and 4.14 µM
48 | COc1cccc([C@@H](CC(=O)O)NC(=O)c2ncnc3[nH]ccc23)c1 | 16.3 µM and 21.7 µM

Row | Compound | IC50
49 | CC(C)[C@@H](Nc1ncnc2[nH]cc(C(N)=O)c12)c1ccc2c(c1)OCCO2 | 0.786 µM and 0.865 µM
50 | COc1ccc(CN(c2ncnc3[nH]ccc23)C(C)C)cc1OC | > 99.5 µM
51 | CC(C)[C@@H](Nc1ncnc2[nH]c(-c3cn[nH]c3)cc12)c1ccc2c(c1)OCCO2 | 0.713 µM and 0.737 µM
52 | CC(C)[C@H](Nc1ncnc2[nH]c(-c3cnn(CC(=O)N(C)C)c3)cc12)c1ccc2c(c1)S(=O)(=O)CCC2 | 5.56 µM and 4.26 µM
53 | CC(C)[C@H](Nc1ncnc(-n2cccn2)n1)c1ccc2c(c1)S(=O)(=O)CCC2 | > 99.5 µM
54 | CC(C)[C@@H](Nc1ncnc2[nH]ccc12)c1ccc2c(c1)NC(=O)[C@@H](C)O2 | 2.69 µM and 2.9 µM
55 | Cc1cn(C)nc1-c1cc2c(N[C@@H](c3ccc4c(c3)OCCO4)C(C)C)ncnc2[nH]1 | > 99.5 µM
56 | CNc1ccc([C@@H](CC(=O)O)NC(=O)c2ncnc3[nH]ccc23)cc1 | 28.9 µM and 34.6 µM
57 | CC(C)[C@@H](Nc1ncnc2[nH]c(-c3cncc(C#N)c3)cc12)c1ccc2c(c1)OCCO2 | 5.81 µM and 7.13 µM
58 | CC(C)[C@@H](Nc1ncnc2[nH]ccc12)c1ccc2c(c1)CCNC2=O | 15.3 µM and 15 µM
59 | CCNC(=O)c1cc2c(N[C@@H](c3nc4ccccc4o3)C(C)C)ncnc2[nH]1 | 20.5 µM and 17.6 µM
60 | O=C(NCc1nc(-c2cc3c(N4CCCC5(CC5)C4)ncnc3[nH]2)c[nH]1)c1ccc(F)nc1 | 24.8 µM and 20.8 µM
61 | Cc1n[nH]c(-c2cc3c(N[C@@H](c4ccc5c(c4)OCCO5)C(C)C)ncnc3[nH]2)c1C | 5.16 µM and 4.51 µM
62 | CCn1cc(-c2cc3c(N[C@@H](c4ccc5c(c4)OCCO5)C(C)C)ncnc3[nH]2)c(C)n1 | 0.423 µM and 0.473 µM
63 | CCNC(=O)c1cc2c(N[C@@H](c3ccc4ncn(C)c(=O)c4c3)C(C)C)ncnc2[nH]1 | 0.409 µM and 0.455 µM
64 | CC(C)[C@@H](Nc1ncc2c(n1)CCCC2)c1ccc2c(c1)OCCO2 | > 99.5 µM
65 | Cc1noc(C)c1-c1cc2c(N[C@@H](c3ccc4c(c3)OCCO4)C(C)C)ncnc2[nH]1 | 16.7 µM and 18.5 µM
66 | Cc1ccc([C@@H](Nc2ncnc3[nH]ccc23)C(C)C)cc1S(C)(=O)=O | 7.29 µM and 11.3 µM
67 | CNS(=O)(=O)c1c[nH]c2ncnc(N[C@@H](c3ccc4c(c3)OCCO4)C(C)C)c12 | 2.57 µM and 2.6 µM
68 | CC(C)[C@@H](Nc1ncnc2[nH]c(-c3cnn(C4CCC4)c3)cc12)c1ccc2c(c1)OCCO2 | 1.17 µM and 1.52 µM and 1.4 µM
69 | CC(C)[C@@H]1C(=O)NCCN1c1ncnc2[nH]ccc12 | 35.3 µM
70 | COC[C@@H]1C[C@@H]1CNc1ccc([C@@H](CC(=O)O)NC(=O)c2c[nH]c3ncncc23)cc1 | > 99.5 µM
71 | COCc1noc(C)c1-c1cc2c(N[C@@H](c3ccc4c(c3)OCCO4)C(C)C)ncnc2[nH]1 | > 99.5 µM
72 | CC(C)[C@@H](Nc1ncnc2[nH]c(-c3cnn(C)n3)cc12)c1ccc2c(c1)OCCO2 | 0.485 µM and 0.517 µM

Row | Compound | IC50
73 | Cc1ncn(C)c1NC(=O)c1cc2c(N[C@@H](c3ccc4c(c3)OCCO4)C(C)C)ncnc2[nH]1 | 10.7 µM and 19.7 µM
74 | COc1cn[nH]c1NC(=O)c1cc2c(N[C@@H](c3ccc4c(c3)OCCO4)C(C)C)ncnc2[nH]1 | 72.6 µM
75 | CC(C)[C@@H](Nc1ncnc2[nH]ccc12)c1ccc2nn[nH]c2c1 | 3.5 µM and 4.1 µM and 4.03 µM
76 | CCNC(=O)c1cc2c(N[C@@H](c3ccc4c(c3)S(=O)(=O)CCC4)C3CC3)ncnc2[nH]1 | 0.395 µM and 0.261 µM
77 | CC(=O)c1ccc(S(=O)(=O)Nc2cnc3[nH]ccc3c2)cc1 | > 99.5 µM
78 | Cc1ccc(C(=O)N2CCC(c3ccn4ncc(C(=O)N[C@@H]5CCC[C@@H]5C(=O)O)c4c3)CC2)cc1 | 20.7 µM and 21.8 µM
79 | O=C(N[C@@H](C(=O)O)C1Cc2ccccc2C1)c1ncnc2[nH]ccc12 | > 99.5 µM
80 | O=S(=O)(Cc1ccc(F)cc1)Nc1cnc2[nH]ccc2c1 | > 99.5 µM
81 | COc1ccc([C@@H](Cc2nn[nH]n2)NC(=O)c2nc(OC)nc3[nH]ccc23)cc1 | 4.55 µM and 4.97 µM
82 | CC(C)[C@@H](NCc1ccc(-n2cccn2)cc1)c1ccc2c(c1)OCCO2 | > 99.5 µM
83 | CC(C)[C@@H](Nc1ncnc2[nH]c(-c3cnn(CC(N)=O)c3)cc12)c1ccc2c(n1)NC(=O)CO2 | 0.25 µM and 0.302 µM and 0.355 µM
84 | O=C(O)c1cn(CCCNC(=O)c2ncnc3[nH]ccc23)nn1 | > 99.5 µM
85 | CC(C)[C@@H](Nc1ncnc2[nH]c(Br)cc12)c1ccc2c(c1)S(=O)(=O)CCC2 | 0.336 µM
86 | O=C(O)[C@@H]1C[C@@H]2OCC[C@@H]2N1c1ncnc2[nH]ccc12 | > 99.5 µM
87 | O=C(Nc1cccc2c(C(=O)N[C@@H](C(=O)O)c3ccc4c(c3)OCCO4)c[nH]c12)NC1CC1 | > 99.5 µM
88 | COc1ccc([C@@H](Cc2nn[nH]n2)NC(=O)c2nc(C)nc3[nH]ccc23)cc1 | 1.84 µM and 1.65 µM
89 | CC(C)[C@H](Nc1ncnc2[nH]c(C(=O)N[C@@H]3CCN(C)C3)cc12)c1ccc2c(c1)S(=O)(=O)CCC2 | 3.16 µM and 2.86 µM and 3.79 µM and 1.62 µM
90 | Cc1ccc(-c2n[nH]cc2CNc2cnc3[nH]ncc3c2)o1 | > 124 µM
91 | CNS(=O)(=O)c1cc2c(N[C@@H](c3ccc4c(c3)S(=O)(=O)CCC4)C(C)C)ncnc2[nH]1 | 1.17 µM
92 | O=C(NCc1ccccc1F)c1ncnc2[nH]ccc12 | > 99.5 µM
93 | CC(C)[C@@H](CO)NC(=O)c1c[nH]c2c(NC(=O)NC3CC3)cccc12 | > 99.5 µM
